Source: ChEMBL document CHEMBL5465560, “Selectivity Literature for EUbOPEN Chemogenomic Library” (2024)

Legend:
[1] = target: Ribosomal protein S6 kinase alpha-6 (Homo sapiens, UniProt Q9UK32); experiment: Selectivity interaction (KinomeScan (DiscoverX)) EUB0001049a RPS6KA6; settings: at 1 µM
[2] = target: NT-3 growth factor receptor (Homo sapiens, UniProt Q16288); experiment: Selectivity interaction (KinomeScan (DiscoverX)) EUB0001049a NTRK3; settings: at 1 µM
[3] = target: T1, Serine/threonine-protein kinase DCLK1 (Homo sapiens) (UniProt O15075); experiment: Selectivity interaction (KinomeScan (DiscoverX)) EUB0000229b DCLK1; settings: at 10 µM
T1 sequence (whole entry): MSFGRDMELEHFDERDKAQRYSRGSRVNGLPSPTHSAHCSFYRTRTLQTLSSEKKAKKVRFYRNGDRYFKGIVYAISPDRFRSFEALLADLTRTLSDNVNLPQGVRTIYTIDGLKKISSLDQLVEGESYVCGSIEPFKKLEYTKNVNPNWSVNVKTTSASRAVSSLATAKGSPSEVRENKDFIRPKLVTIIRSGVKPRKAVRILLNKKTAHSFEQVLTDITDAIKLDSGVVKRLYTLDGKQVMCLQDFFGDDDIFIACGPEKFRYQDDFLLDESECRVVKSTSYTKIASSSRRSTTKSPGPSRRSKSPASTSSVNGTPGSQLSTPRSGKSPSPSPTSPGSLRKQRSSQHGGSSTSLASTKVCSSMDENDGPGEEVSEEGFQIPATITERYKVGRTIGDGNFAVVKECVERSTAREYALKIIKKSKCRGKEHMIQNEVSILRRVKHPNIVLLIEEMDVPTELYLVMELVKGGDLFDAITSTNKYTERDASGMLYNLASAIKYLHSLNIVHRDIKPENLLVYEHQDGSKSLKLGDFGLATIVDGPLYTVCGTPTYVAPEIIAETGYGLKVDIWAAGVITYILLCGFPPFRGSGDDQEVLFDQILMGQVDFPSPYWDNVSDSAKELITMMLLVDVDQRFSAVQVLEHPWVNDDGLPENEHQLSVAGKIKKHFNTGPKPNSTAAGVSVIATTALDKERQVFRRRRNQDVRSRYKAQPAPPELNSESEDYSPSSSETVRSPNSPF

[4] = target: TRAF2 and NCK-interacting protein kinase (Homo sapiens) (UniProt Q9UKE5); experiment: Selectivity interaction (KinomeScan (DiscoverX)) EUB0000229b TNIK; settings: at 10 µM
[5] = target: Rho-associated protein kinase 2 (Homo sapiens, UniProt O75116); experiment: Selectivity interaction (KinomeScan (DiscoverX)) EUB0000229b ROCK2; settings: at 10 µM
[6] = target: Serine/threonine-protein kinase PRP4 homolog (Homo sapiens) (UniProt Q13523); experiment: Selectivity interaction (KinomeScan (DiscoverX)) EUB0000229b PRPF4B; settings: at 10 µM
Serine/threonine-protein kinase PRP4 homolog (Homo sapiens), sequence (Q13523 whole entry): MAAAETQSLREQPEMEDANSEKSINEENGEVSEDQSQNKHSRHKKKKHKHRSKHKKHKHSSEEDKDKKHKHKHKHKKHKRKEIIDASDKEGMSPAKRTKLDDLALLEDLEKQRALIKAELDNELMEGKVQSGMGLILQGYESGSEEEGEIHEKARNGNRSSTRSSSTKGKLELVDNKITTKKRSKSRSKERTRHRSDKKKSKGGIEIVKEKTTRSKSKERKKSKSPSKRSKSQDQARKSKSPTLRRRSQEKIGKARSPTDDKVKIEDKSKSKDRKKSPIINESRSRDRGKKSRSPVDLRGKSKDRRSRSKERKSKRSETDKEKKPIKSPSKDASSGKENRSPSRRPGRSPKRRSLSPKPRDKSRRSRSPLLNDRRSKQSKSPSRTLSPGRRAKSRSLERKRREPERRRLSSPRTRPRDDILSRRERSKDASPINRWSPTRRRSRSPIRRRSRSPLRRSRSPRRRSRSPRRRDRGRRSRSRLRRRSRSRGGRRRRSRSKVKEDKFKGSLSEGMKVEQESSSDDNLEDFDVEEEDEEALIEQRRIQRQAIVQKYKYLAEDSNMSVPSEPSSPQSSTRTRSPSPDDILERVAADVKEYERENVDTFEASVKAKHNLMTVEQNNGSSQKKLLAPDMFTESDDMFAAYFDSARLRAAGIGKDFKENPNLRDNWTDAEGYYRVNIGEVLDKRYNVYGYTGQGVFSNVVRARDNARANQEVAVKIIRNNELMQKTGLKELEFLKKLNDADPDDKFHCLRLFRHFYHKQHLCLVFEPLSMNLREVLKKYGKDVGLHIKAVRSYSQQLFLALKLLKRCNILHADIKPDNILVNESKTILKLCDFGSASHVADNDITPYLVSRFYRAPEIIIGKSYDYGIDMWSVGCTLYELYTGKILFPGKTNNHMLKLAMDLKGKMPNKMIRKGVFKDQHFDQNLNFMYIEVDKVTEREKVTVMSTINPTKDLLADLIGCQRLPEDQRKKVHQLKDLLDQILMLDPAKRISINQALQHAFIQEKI

SRSF protein kinase 1 = SRSF protein kinase 1 (Homo sapiens, UniProt Q96SB4); experiment: Selectivity interaction (KinomeScan (DiscoverX)) EUB0001079a SRPK1; settings: at 1 µM
[7] = target: Dual specificity mitogen-activated protein kinase kinase 1 (Homo sapiens, UniProt Q02750); settings: at 10 µM
Dual specificity mitogen-activated protein kinase kinase 1, sequence (Q02750 whole entry): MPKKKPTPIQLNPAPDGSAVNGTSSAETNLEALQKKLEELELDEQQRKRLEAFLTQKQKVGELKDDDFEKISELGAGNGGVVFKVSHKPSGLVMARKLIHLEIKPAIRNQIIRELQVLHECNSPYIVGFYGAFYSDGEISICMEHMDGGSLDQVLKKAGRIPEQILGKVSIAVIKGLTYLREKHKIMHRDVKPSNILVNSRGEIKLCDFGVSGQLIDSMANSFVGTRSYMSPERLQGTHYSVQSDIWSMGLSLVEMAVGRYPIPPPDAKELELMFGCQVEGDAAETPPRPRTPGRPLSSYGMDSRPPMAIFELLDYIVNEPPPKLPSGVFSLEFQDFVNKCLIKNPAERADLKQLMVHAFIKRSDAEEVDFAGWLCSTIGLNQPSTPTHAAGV

[8] = target: Serine/threonine-protein kinase Chk2 (Homo sapiens) (UniProt O96017); experiment: Selectivity interaction (ActivX KiNativ screen (kinase selectivity in THP-1 cell lysates)) EUB0000639a CHEK2; type: subcellular; settings: lysate, at 0.01 µM
Serine/threonine-protein kinase Chk2 (Homo sapiens), sequence (O96017 whole entry): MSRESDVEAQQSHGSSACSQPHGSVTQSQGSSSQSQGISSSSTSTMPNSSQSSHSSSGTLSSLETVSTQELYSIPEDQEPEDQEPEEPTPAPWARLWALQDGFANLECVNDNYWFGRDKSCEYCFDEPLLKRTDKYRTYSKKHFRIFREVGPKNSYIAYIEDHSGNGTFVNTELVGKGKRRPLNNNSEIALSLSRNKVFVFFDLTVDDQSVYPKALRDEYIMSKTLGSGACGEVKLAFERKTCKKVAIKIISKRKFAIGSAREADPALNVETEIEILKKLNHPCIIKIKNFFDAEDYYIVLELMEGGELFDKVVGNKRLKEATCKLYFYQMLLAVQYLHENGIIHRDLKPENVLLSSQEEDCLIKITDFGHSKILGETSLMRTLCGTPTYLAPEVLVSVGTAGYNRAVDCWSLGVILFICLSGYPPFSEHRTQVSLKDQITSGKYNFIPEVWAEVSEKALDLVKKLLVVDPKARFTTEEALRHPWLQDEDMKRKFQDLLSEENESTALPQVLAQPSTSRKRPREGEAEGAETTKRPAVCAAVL

[9] = target: Wee1-like protein kinase (Homo sapiens) (UniProt P30291); experiment: Selectivity interaction (KinomeScan (DiscoverX)) EUB0000092b WEE1; settings: at 10 µM
[10] = target: Cyclin-dependent kinase 17 (Homo sapiens) (UniProt Q00537); experiment: Selectivity interaction (KinomeScan (DiscoverX)) EUB0000092b CDK17; settings: at 10 µM
Cyclin-dependent kinase 17 (Homo sapiens), sequence (Q00537 whole entry, looked up): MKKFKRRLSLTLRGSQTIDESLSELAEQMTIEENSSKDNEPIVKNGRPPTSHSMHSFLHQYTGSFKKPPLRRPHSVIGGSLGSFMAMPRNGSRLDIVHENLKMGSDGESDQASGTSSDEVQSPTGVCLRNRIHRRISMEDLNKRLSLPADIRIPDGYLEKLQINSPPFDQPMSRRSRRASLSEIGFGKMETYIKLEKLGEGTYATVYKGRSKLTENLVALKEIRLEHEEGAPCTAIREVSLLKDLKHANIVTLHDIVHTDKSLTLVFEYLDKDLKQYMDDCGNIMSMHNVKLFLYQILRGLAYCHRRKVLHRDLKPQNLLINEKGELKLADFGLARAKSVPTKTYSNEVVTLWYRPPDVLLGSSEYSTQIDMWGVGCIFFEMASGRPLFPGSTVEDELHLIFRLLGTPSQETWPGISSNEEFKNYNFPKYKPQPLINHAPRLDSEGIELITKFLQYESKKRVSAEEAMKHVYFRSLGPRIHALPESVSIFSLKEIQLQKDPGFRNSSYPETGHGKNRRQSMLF

[11] = target: Ribosomal protein S6 kinase alpha-3 (Homo sapiens, UniProt P51812); experiment: Selectivity interaction (ActivX KiNativ screen (ex vivo kinase selectivity in human PBMCs)) EUB0001619a RPS6KA3; type: cell-based; settings: PBMC, at 1 µM
[12] = target: Receptor-type tyrosine-protein kinase FLT3 (Homo sapiens) (UniProt P36888); experiment: Selectivity interaction (KinomeScan (DiscoverX)) EUB0000655a FLT3; settings: at 10 µM
[13] = target: Serine/threonine-protein kinase PAK 6 (Homo sapiens) (UniProt Q9NQU5); experiment: Selectivity interaction (KinomeScan (DiscoverX)) EUB0000695a PAK6; settings: at 100 nM
Serine/threonine-protein kinase PAK 6 (Homo sapiens), sequence (Q9NQU5 whole entry, looked up): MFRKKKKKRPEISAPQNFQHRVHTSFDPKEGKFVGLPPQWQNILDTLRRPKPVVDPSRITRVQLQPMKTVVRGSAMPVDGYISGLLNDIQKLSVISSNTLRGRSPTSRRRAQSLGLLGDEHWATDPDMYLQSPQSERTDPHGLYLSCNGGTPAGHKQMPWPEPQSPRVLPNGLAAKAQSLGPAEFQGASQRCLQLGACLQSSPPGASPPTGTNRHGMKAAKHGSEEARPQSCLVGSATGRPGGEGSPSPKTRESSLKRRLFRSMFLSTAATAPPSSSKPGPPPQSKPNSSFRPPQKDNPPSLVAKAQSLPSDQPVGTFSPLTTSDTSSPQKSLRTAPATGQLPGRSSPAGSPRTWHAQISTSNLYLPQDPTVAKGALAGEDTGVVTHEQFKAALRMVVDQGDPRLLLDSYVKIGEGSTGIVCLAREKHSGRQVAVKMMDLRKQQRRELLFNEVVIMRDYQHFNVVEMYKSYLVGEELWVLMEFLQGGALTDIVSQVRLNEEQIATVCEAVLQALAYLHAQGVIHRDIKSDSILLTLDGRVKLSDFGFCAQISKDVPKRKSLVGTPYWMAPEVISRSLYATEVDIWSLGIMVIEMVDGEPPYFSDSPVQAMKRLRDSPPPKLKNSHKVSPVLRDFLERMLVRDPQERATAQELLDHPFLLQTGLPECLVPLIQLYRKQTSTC

[14] = target: Protein arginine N-methyltransferase 5 (Homo sapiens, UniProt O14744); experiment: Selectivity interaction (Methyltransferase screen (radiometric assays, panel of 8 PRMTs, 21 protein lysine methyltransferases, 3 DNA methyltransferases, and one RNA methyltransferase)) EUB0000271b PRMT5
Protein arginine N-methyltransferase 5, sequence (O14744 whole entry): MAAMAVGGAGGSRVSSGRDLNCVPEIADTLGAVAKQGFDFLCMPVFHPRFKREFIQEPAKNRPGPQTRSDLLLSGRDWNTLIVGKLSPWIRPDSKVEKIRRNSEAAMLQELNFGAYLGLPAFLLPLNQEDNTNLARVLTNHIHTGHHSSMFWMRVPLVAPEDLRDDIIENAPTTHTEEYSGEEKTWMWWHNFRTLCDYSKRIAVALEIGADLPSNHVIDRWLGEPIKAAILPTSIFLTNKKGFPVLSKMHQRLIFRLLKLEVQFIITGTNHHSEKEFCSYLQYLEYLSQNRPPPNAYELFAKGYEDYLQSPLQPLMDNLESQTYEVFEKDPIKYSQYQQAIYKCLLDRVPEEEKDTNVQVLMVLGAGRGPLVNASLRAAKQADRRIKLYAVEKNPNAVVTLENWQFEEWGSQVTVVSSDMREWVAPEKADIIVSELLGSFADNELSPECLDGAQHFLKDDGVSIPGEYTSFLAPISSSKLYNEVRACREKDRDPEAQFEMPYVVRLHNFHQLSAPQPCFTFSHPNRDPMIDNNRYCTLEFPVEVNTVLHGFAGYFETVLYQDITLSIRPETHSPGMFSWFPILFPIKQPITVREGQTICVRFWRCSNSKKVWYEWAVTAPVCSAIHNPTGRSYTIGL

[15] = target: Histone-lysine N-methyltransferase PRDM9 (Homo sapiens) (UniProt Q9NQV7); experiment: Selectivity interaction (Methyltransferase screen (radiometric assays, panel of 8 PRMTs, 21 protein lysine methyltransferases, 3 DNA methyltransferases, and one RNA methyltransferase)) EUB0000271b PRDM9
Histone-lysine N-methyltransferase PRDM9 (Homo sapiens), sequence (Q9NQV7 whole entry, canonical isoform): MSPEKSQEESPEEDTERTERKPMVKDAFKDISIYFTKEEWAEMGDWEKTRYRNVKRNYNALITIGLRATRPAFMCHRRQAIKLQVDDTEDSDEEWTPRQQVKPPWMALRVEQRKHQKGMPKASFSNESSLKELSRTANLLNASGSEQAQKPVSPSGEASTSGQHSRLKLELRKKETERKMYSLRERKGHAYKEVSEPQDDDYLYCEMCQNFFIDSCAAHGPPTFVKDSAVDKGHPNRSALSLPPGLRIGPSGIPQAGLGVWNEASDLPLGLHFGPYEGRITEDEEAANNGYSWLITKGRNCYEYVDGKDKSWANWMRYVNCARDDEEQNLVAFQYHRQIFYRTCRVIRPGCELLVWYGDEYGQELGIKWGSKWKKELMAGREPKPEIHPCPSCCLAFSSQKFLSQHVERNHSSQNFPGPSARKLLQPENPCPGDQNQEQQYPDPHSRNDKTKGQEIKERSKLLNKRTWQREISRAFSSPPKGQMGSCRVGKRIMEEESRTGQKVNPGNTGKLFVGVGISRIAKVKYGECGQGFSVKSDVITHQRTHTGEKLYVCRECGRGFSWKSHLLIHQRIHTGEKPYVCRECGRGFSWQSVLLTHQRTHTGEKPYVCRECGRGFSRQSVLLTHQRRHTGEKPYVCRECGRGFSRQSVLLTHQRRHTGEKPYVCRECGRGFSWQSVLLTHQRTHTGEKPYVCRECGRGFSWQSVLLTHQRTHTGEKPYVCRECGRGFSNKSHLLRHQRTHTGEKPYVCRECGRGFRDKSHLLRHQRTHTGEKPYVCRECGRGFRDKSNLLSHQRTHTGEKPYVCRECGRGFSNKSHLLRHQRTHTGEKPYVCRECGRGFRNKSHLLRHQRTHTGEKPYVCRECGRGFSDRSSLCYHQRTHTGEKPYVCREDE

[16] = target: Casein kinase I isoform alpha (Homo sapiens, UniProt P48729); experiment: Selectivity interaction (ProQinase) EUB0000171b CSNK1A1
Casein kinase I isoform alpha, sequence (P48729 2-337 limits assumed): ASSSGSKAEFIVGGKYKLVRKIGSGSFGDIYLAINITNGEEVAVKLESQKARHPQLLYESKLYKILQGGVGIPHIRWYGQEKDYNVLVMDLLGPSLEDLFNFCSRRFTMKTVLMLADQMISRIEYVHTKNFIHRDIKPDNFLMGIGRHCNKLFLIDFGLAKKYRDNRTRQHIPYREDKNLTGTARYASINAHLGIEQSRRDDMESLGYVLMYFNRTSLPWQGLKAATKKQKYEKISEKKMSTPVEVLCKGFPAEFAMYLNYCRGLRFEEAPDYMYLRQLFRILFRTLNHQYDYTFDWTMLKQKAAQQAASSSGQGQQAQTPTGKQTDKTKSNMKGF

COc1cc(Nc2nc(C)cc(-c3cnn4nc(OC)ccc34)n2)cc(C(F)(F)F)c1
% of control [1]: 82%
% of control [2]: 84%

COc1cc(N(C)c2ccnc3ccc(C(F)(F)F)cc23)cc(OC)c1OC
% binding [3]: 73%
% binding [4]: 69%
% binding [5]: 100%
% binding [6]: 100%

Nc1cnc(N2CCc3cc(S(=O)(=O)Nc4c(F)cc(Cl)cc4F)cc(N4CCCC4=O)c32)nc1 [TP-020n]
% of control (SRSF protein kinase 1): 81%

CCN(CC)CCCCNc1ncc2cc(-c3cc(OC)cc(OC)c3)c(NC(=O)NC(C)(C)C)nc2n1
% of control [7]: 100%

CC[C@@H]1[C@H](F)C(=O)N[C@@H]1COc1nccc2cc(C(N)=O)c(OC)cc12 [ZIMLOVISERTIB]
% of inhibition [8]: -4.8%

CCC(=O)N1CCN(c2ccc(-n3c(=O)ccc4cnc5ccc(-c6cnc7ccccc7c6)cc5c43)cc2C(F)(F)F)CC1
% of control [9]: 42%
% of control [10]: 97%

N#Cc1cccc(-c2c[nH]c3ncnc(N4CCOCC4)c23)c1
% of inhibition [11]: 13%

CN(C)CCOc1ccc(-c2nc(-c3ccncc3)c(-c3ccc4c(c3)CC/C4=N\O)[nH]2)cc1
% of control [12]: 62%

Cc1cc(F)c(C(=O)Nc2cccc(-c3nncn3C(C)C)n2)cc1-n1cnc(C2CC2)c1
% of control [13]: 90%

Cc1cc(C)cc([C@@H]2c3cc(C)ccc3NC(=O)CN2C(=O)c2ccc(Br)s2)c1
% of activity ([14]; at 1 µM): 102%
% of activity ([14]; at 10 µM): 100%
% of activity ([15]; at 1 µM): 102%
% of activity ([15]; at 10 µM): 97%

C=CC(=O)Nc1cccc(C(=O)Nc2ccc(Nc3cc(-c4[nH]c(SC)nc4C)ccn3)cc2)c1
% of control ([16]; at 1 µM): 70%
% of control ([16]; at 5 µM): 38%
